Test results as given in US20230172961A1 (priority 2020, published 2023).

Molecular target: SARS-CoV-2 exonuclease complex (nsp14 and nsp10) (Severe acute respiratory syndrome coronavirus 2, UniProt P0DTD1)
Assay: Exonuclease resistance of RNA terminated with nucleotide analogues, MALDI-TOF MS
Type: biochemical
Conditions: for relative resistance to excision by the exonuclease: analogue at the 3′ terminus of RNA, compared with other 3′ termini; for cleavage of extended RNA after 5 min exonuclease treatment / cleavage of extended RNA after 30 min exonuclease treatment: RNA extended by SARS-CoV-2 RdRp (FIGS. 48, 49)

| Substance | relative resistance to excision by the exonuclease | relative resistance to excision by the exonuclease (listed as 2′-O-Me-CTP) | cleavage of extended RNA after 5 min exonuclease treatment | cleavage of extended RNA after 5 min exonuclease treatment (listed as SFV) | cleavage of extended RNA after 30 min exonuclease treatment | cleavage of extended RNA after 30 min exonuclease treatment (listed as SFV) |
| --- | --- | --- | --- | --- | --- | --- |
| 2′-O-methyl CMP | resistant to excision | much more full-length RNA remaining |  |  |  |  |
| Sofosbuvir | more protected from cleavage |  | minimal appearance of cleavage products | some reduction in the height | significant amount of the intact Sofosbuvir-RNA remaining | still some SFV extended RNA remaining |
| UMP |  |  | substantial cleavage |  | completely disappears |  |
